One assay deals with T1, glucocorticoid receptor (Homo sapiens, UniProt P04150).
T1 construct: host or cells: HEK293
T1 sequence (P04150 1-777): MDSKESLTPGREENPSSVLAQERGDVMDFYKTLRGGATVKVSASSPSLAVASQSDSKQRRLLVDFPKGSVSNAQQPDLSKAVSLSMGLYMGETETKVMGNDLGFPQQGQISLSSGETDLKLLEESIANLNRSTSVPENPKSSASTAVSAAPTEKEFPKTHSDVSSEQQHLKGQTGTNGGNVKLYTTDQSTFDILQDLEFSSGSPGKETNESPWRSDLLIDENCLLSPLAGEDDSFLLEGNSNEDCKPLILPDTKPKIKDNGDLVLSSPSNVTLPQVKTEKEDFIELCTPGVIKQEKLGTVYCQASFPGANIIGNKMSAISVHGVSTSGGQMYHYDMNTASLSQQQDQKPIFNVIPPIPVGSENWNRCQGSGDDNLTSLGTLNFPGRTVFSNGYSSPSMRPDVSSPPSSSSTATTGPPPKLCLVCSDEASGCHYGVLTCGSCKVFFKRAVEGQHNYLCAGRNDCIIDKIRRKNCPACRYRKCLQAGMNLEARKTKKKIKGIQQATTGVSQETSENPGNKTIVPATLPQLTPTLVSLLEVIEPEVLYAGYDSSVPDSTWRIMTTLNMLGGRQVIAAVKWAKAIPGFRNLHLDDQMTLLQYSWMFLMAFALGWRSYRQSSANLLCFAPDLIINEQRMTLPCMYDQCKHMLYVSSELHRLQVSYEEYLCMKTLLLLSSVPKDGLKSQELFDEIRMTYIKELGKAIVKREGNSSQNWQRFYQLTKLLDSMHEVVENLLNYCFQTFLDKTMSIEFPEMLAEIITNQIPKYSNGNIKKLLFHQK
In words: Activity assay of glucocorticoid receptor reporter gene GRE. It is filed as cell-based. As to conditions: HEK293 cells transfected with pGL5 and pBIND-GR; 24 h; Dual-Glo luciferase. As to the method: (§1) HEK293 cells were cultured in DMEM+10% FBS medium in a carbon dioxide incubator humidified at 37° C. with 5% carbon dioxide.
HEK293 cells were digested with trypsin, and the HEK293 cell resuspension was adjusted to 200,000 cell/mL in medium (96 well plate: 100 μL/well).
Transfection reagent mixtures were prepared according to Tables 5a and 5b below, mixed well and left to stand at room temperature for 20 min.
The prepared transfection mixtures were added to 10 mL of the cell density-adjusted resuspension, mixed well by turning the mixtures upside down, and seeded into a 96-well plate at a volume of 100 μL/well.
The 96-well plate was incubated in a humidified incubator at 37° C. with 5% carbon dioxide for 24 h.
The test plate was placed back into the incubator and incubated for 24 h.
(§2) The test plate was detected using the Dual-Glo Luciferase Assay System kit from Promega, and the fluorescence signal of Firefly Luciferase and the fluorescence signal of Renilla Luciferase were read using Enspire, respectively.
The final measurement value was a normalized value “F/R” obtained by dividing the Firefly Luciferase fluorescent signal by the Renilla Luciferase fluorescent signal.
The data were copied and pasted into Excel, and the activation rate was obtained through an equation.
The data were imported into MS Excel and subjected to curve fitting by using XLFit excel add-in version 5.4.0.8 to obtain an EC50 value.
(§3) Y is the agonism and X is the concentration of the compound.
For orientation: In a reporter assay the amount or activity of a reporter protein is the signal.

Another assay has as its target T2, GR (Homo sapiens, UniProt P04150).
T2 construct: host or cells: HEK293
T2 sequence (P04150 1-777): T1 sequence (P04150 1-777)
In words: GR luciferase reporter gene elution experiment. The class given is cell-based. Particulars: supernatant removed and washed, then 24 h; for Elution time (Act %) 15 min: incubation 15 min; for Elution time (Act %) 30 min: incubation 30 min; for Elution time (Act %) 1 h: incubation 1 h; for Elution time (Act %) 2 h: incubation 2 h; for Elution time (Act %) 4 h: incubation 4 h. As to the method: The compounds of the present application were evaluated for their ability to continue activation upon binding to GR.
as §1
• 1) HEK293 cells were digested with trypsin, and the HEK293 cell resuspension was adjusted to 200,000 cell/mL in medium (96 well plate: 100 μL/well). • 2) Transfection reagent mixtures were prepared according to the table below, mixed well and left to stand at room temperature for 20 min.
• 3) The prepared transfection mixtures were added to 10 mL of the cell density-adjusted resuspension, mixed well by turning the mixtures upside down, and seeded into a 96-well plate at a volume of 100 μL/well. • 4) The 96-well plate was incubated in a humidified incubator at 37° C. with 5% carbon dioxide for 24 h.
as §2
5. Data Processing • 1) The final measurement value was a normalized value “F/R” obtained by dividing the Firefly Luciferase fluorescent signal by the Renilla Luciferase fluorescent signal. • 2) The data were copied and pasted into Excel, and the activation rate was obtained through an equation.
[formula] • 3) The data were imported into MS Excel and subjected to curve fitting by using XLFit excel add-in version 5.4.0.8 to obtain an EC50 value.
as §3

A further assay has as its system DBA/1J mice. The assay can be described thus: Bovine type II collagen mixed adjuvant-induced DBA/1 mouse arthritis (CIA) model. As to conditions: Table 10-2; 0.2 mg/kg p.o.; mean. It is filed as in vivo. As to the method:
Example 6: Assay of Biological Activity of Bovine Type II Collagen Mixed Adjuvant-Induced DBA/1 Mouse Arthritis Model
The potency of the ligand-drug conjugates (ADCs) of the present application was evaluated in a bovine collagen-induced arthritis (CIA) model.
Male DBA/1J mice were obtained from Jackson Labs. The mice were used at 6-8 weeks of age. All animals were given ad libitum access to food and water under a 12-hour light/dark cycle at constant temperature and humidity.
Bovine collagen (Chondrex, Inc. Cat: 20021) was dissolved in 0.1 M acetic acid and stored overnight in a 2-8 C refrigerator at a collagen concentration of 8 mg/mL, and an equal volume of CFA (complete Freund's adjuvant, Difco, Laurence, KS) was added into the collagen solution and emulsified in a high speed homogenizer to make an emulsion. On Day 0, animals in need of immunization were anesthetized with 2%-5% isoflurane and male DBA/J mice were immunized once with a single subcutaneous injection of 50 μL collagen/CFA emulsion at the tail root of 2-3 cm from the body. Three weeks later, namely on Day 21, the tail root was immunized twice with the same volume of collagen emulsion by the same injection method. After the second immunization, 120 animals with an average score of about 2 for the limb arthritis were selected and randomly grouped. The animals were treated by a single intraperitoneal injection of test reagent according to the experimental design after grouping. For the dexamethasone (Sphsine) treatment group, the drug was administered the day after grouping until the end of the trial. The extremities of each group were observed twice weekly for the onset of arthritis from the time of the second immunization, and the observation was continued until the end of the trial.
Scoring according to the degree of lesion (redness and swelling) was performed on a scale of 0-4 points, with a maximum score of 4 for each limb and a total maximum score of 16 for each animal's limbs. The scoring criteria are as follows: 0 points, no redness and swelling; 1 point, 1-2 red and swollen interphalangeal joints; 2 points, 3-4 red and swollen interphalangeal joints; 3 points, more than 4 red and swollen interphalangeal joints; 4 points, severe redness and swelling in toes or fingers to ankle joints or wrist joints. For joint swelling, ankle thickness of hind paw of each animal was measured with a screw micrometer before one immunization. Since the second immunization, measurements were performed 2 times per week, and changes in ankle thickness before and after the immunization were compared. After the trial was completed, all animals were anesthetized with 2-5% isoflurane and then euthanized by exsanguination.
Score AUC: area under the curve for arthritis score. The results are shown in Tables 10-1 and 10-2 and FIGS. 3a-3c.

Each structure is given as a SMILES string.

For orientation: EC50 means the concentration at which the effect is half-maximal. Lower therefore signals an effect from little substance.

Take `C[C@]12C=CC(=O)C=C1CC[C@H]1[C@@H]3C[C@H]4O[C@@H](c5ccn(Cc6cccc(N)c6)c5)O[C@@]4(C(=O)CO)[C@@]3(C)C[C@H](O)[C@@]12F` [Compound 7]: the response at glucocorticoid receptor was half-maximal at 0.13 nM (EC50).
Same read-out and setting: for `C[C@]12C=CC(=O)C=C1CC[C@H]1[C@@H]3C[C@H]4O[C@@H](c5ccn(Cc6ccc(N)cc6)c5)O[C@@]4(C(=O)CO)[C@@]3(C)C[C@H](O)[C@@]12F` [Compound 8] the value was 0.07 nM.
On the same count and under the same terms, for `C[C@]12C=CC(=O)C=C1CC[C@@H]1[C@@H]2[C@@H](O)C[C@@]2(C)[C@H]1C[C@H]1O[C@@H](c3ccc(Cc4cccc(N)c4)s3)O[C@]12C(=O)CO` [Compound 11] the value was 0.37 nM; for `C[C@]12C=CC(=O)C=C1CC[C@@H]1[C@@H]2[C@@H](O)C[C@@]2(C)[C@H]1C[C@H]1O[C@@H](c3ccc(Cc4ccc(N)cc4)s3)O[C@]12C(=O)CO` [Compound 15], 0.63 nM.
Turning to `C[C@]12C=CC(=O)C=C1CC[C@H]1[C@@H]3C[C@H]4O[C@@H](c5ccc(Cc6ccc(N)cc6)s5)O[C@@]4(C(=O)CO)[C@@]3(C)C[C@H](O)[C@@]12F` [Compound 17], on GR, the “Elution time (Act %) 15 min” value is 1.7%, the “Elution time (Act %) 30 min” value came to 0.7%, the “Elution time (Act %) 1 h” value is 1.3% and the “Elution time (Act %) 2 h” value is recorded as 2.9%. Moreover, at GR, the “Elution time (Act %) 4 h” value came out at 9.7%. Also, on glucocorticoid receptor, a half-maximal response (EC50) required 0.33 nM.
Compound `C[C@]12C=CC(=O)C=C1CC[C@@H]1[C@@H]2[C@@H](O)C[C@@]2(C)[C@H]1C[C@H]1O[C@@H](c3cc(Cc4cccc(N)c4)cs3)O[C@]12C(=O)CO` [Compound 18] came in with an EC50 on glucocorticoid receptor of 0.28 nM.
Regarding `CC12C=CC(=O)C=C1CCC1C2C(O)CC2(C)C1CC1OC(c3ccc(Oc4cccc(N)c4)cn3)OC12C(=O)CO` [Compound 19, (6aR,6bS,7S,8aS,8bS,10R,11aR,12aS,12bS)-10-(5-(3-aminophenoxy)pyridin-2-yl)-7-hydroxy-8b-(2-hydroxyacetyl)-6a,8a-dimethyl-1,2,6a,6b,7,8,8a,8b,11a,12,12a,12b-dodecahydro-4H-naphtho[2′,1′:4,5]indeno[1,2-d][1,3]dioxol-4-one], the EC50 at glucocorticoid receptor was greater than 1000 nM.
The same measure, in the same setting: for `C[C@]12C=CC(=O)C=C1CC[C@@H]1[C@@H]2[C@@H](O)C[C@@]2(C)[C@H]1C[C@H]1O[C@@H](c3coc(Cc4cccc(N)c4)c3)O[C@]12C(=O)CO` [Compound 20] the value was greater than 1000 nM; for `C[C@]12C=CC(=O)C=C1CC[C@@H]1[C@@H]2[C@@H](O)C[C@@]2(C)[C@H]1C[C@H]1O[C@@H](c3cnc(Cc4cccc(N)c4)s3)O[C@]12C(=O)CO` [Compound 28, reference compound], 10 nM.
Still for that read-out and setting: under `C[C@]12C=CC(=O)C=C1CC[C@@H]1[C@@H]2[C@@H](O)C[C@@]2(C)[C@H]1C[C@H]1O[C@H](c3cnc(Cc4cccc(N)c4)s3)O[C@]12C(=O)CO` [Compound 28S] stands greater than 1000 nM.
In the case of `C[C@@H]1C[C@H]2[C@@H]3CCC4=CC(=O)C=C[C@]4(C)[C@@]3(F)[C@@H](O)C[C@]2(C)[C@@]1(O)C(=O)CO` [Dexamethasone, dexamethasone], in the assay with DBA/1J mice, the “Arthritis score AUC (area under the curve for arthritis score)” value worked out at 24.50, the “Arthritis score D 0” value amounted to 0.00, the “Arthritis score D 21” value turned out to be 0.00 and the “Arthritis score D 24” value came to 0.00. In addition, in the assay with DBA/1J mice, the “Arthritis score D 28” value was determined as 0.00, the “Arthritis score D 31” value amounted to 2.10, the “Arthritis score D 35” value is on record as 2.90 and the “Arthritis score Day 38” value turned out to be 1.30. For the same compound, in the assay with DBA/1J mice, the “Arthritis score Day 42” value is on record as 0.50, the “Arthritis score Day 45” value is recorded as 0.20, the “Arthritis score Day 49” value came out at 0.00 and the “Arthritis score Day 52” value was 0.00. The “Arthritis score Day 56” value in the assay with DBA/1J mice came to 0.00. Besides, at GR, the “Elution time (Act %) 15 min” value is 9.4%, the “Elution time (Act %) 30 min” value came to 10.0%, the “Elution time (Act %) 1 h” value amounted to 7.2% and the “Elution time (Act %) 2 h” value is recorded as 6.2%. For the same compound, the “Elution time (Act %) 4 h” value on GR is on record as 31.9%.

The record behind these values is US20250179114A1, “Anti-Inflammatory Compound and Use Thereof” (DUALITY BIOLOGICS (SUZHOU) CO., LTD., priority 2021, published 2025).
